Test results from ChEMBL document CHEMBL5120750, “Bis-bibenzyls, Bibenzyls, and Terpenoids in 33 Genera of the Marchantiophyta (Liverworts): Structures, Synthesis, and Bioactivity” (2022).
≈ marks a conversion by molar mass, not a printed value.

Legend:
Saccharomyces cerevisiae [1] = test: Antibacterial activity against Saccharomyces cerevisiae; assay type: functional
Saccharomyces cerevisiae [2] = test: Bactericidal activity against Saccharomyces cerevisiae; assay type: functional

| SMILES | MIC (Saccharomyces cerevisiae [1]) | MBC (Saccharomyces cerevisiae [2]) |
| --- | --- | --- |
| Oc1cccc(CCc2ccc(Oc3cc(CCc4cccc(O)c4)cc(O)c3O)cc2)c1 [PERROTETTIN F] | 0.98 µg/mL (≈ 2.21 µM) | 0.98 µg/mL (≈ 2.21 µM) |
| Oc1cc2cc(c1O)Oc1ccc(cc1)CCc1cccc(O)c1Oc1cccc(c1)CC2 [MARCHANTIN A] | 0.98 µg/mL (≈ 2.22 µM) | 0.98 µg/mL (≈ 2.22 µM) |
